Test results: patent US20260373175A1, “STABLE AST-3424 API PRODUCT, PREPARATION METHOD THEREFOR, AND STORAGE THEREOF” (ASCENTAWITS PHARMACEUTICALS, LTD., priority 2022, published 2026)
Values after ≈ are worked out from the molar mass of the structure shown. “Also recorded” adds a separate entry of the source.

Experiments:
Type in all cases: physicochemical
[1] = Observation of viscosity of AST-3424 (FIG. 3); settings: neat AST-3424, FIG. 3
Text: Therefore, it is inconvenient to transfer and sub-package it, and solvents are needed to reduce the viscosity thereof.

[2] = Choice of solvent during distillation in the preparation of AST-3424
Text: In the preparation of the AST-3424, in order to remove the solvent, water, etc., used in the preparation and separation processes by distillation as much as possible, the applicant mixes the oily AST-3424 product separated and purified with various common solvents (ethyl acetate, ethanol, methanol, etc.) and performs distillation under reduced pressure after the mixture is heated at a lower temperature. […] Therefore, ethanol is ultimately used through initial confirmation.

[3] = Long-term stability study at −20±5 °C and 5±3 °C away from light (HDPE bottle, LDPE bag, aluminum foil bag); settings: pure API, current limited stability data
Text: (§1) The samples used for the stability study were inner-packaged in an HDPE bottle with a screw cap and outer-packaged in an LDPE bag with a pull button placed in a heat-sealing aluminum foil bag.
(§2) The water content (mass percentage), content, purity (chemical purity) and enantiomeric excess (e.e %) values were detected at 0, 1, 2, 3, 6, 9, 12, 18, 24, 36 and 42 months, respectively. The samples of batches 024101, 034101 and 044101 were used in the experiments.

[4] = Stability of AST-3424 solutions (about 90 mg/mL) in different solvents, high-temperature destruction 40 °C, 3 days
Method: The AST-3424 solutions (contents were about 90 mg/mL) dissolved in different solvents were subjected to high-temperature destruction (40 °C, 3 days). The purity was detected. The destructed solutions were compared with samples not subjected to the destruction (40 °C, 3 days). The stability of AST-3424 in different solvents was examined.
Purity was determined by using an HPLC method:
Mobile phase: • A: 10 mmol/L ammonium acetate solution obtained by dissolving ammonium acetate in a mixed solvent of 95% water and 5% acetonitrile by volume ratio; and • B: 8 mmol/L ammonium acetate solution obtained by dissolving ammonium acetate in a mixed solvent of 95% acetonitrile and 5% water by volume ratio; and
A gradient elution was performed.

[5] = Accelerated stability experiment at 25±2 °C and 60±5% RH away from light; settings: 25 °C, after 2 months
Text: as §1, §2

[6] = Stability of AST-3424 solutions (about 90 mg/mL) in different solvents, high-temperature destruction 40 °C, 3 days; settings: dissolved in propylene glycol, compared with other solvents
[7] = Solubility test of AST-3424 in different solvents at 25 °C
Method: A proper amount of AST-3424 (hereinafter referred to as active pharmaceutical ingredient or API) was taken and placed into a proper container, a solvent was gradually added thereto, the mixture was uniformly shaken, the process of the solution changing from turbidity (excessive oil drops of AST-3424 exist) to clarification (AST-3424 is completely dissolved) was observed, the volume of the solvent for clarifying the mixed solution of AST-3424 was recorded, and the solubility was calculated.
In addition, water was further used for the experiment.

[8] = absolute ethanol, 40 °C, 3 days
[9] = propylene glycol, 40 °C, 3 days

Degradation [5]: degraded rapidly | Purity [5]: less than 98%
Compound: C[C@H](OP(=O)(N1CC1)N1CC1)c1ccc([N+](=O)[O-])c(Oc2cccc(C(=O)N(C)C)c2)c1 [AST-3424, (S)-1-(3-(3-N,N-dimethylaminocarbonyl)phenoxy-4-nitrophenyl)-1-ethyl-N,N′bis(ethylene)phosphoramidate]
Physical state / viscosity [1]: viscous oily substance | solubility ([2]; ethanol): almost infinitely dissolve | solubility ([2]; ethyl acetate): not high enough | solubility ([2]; methanol): good solubility | Stability compared with AST-3424 ethanol solution [3]: better than that of the AST-3424 ethanol solution | Chemical purity ([4]; 0 day (not subjected to destruction)): 99.3% | Stability in solvent ([4]; absolute ethanol): stable; also recorded: good solubility and stability | Chemical purity [4, 8]: 98.8% | Content of AST-3424 [4, 8]: 89.5 mg/mL | Stability in solvent ([4]; acetonitrile): stable | Chemical purity ([4]; acetonitrile, 40 °C, 3 days): 99.3% | Content of AST-3424 ([4]; acetonitrile, 40 °C, 3 days): 91.0 mg/mL | Stability in solvent ([4]; ethyl acetate): stable | Chemical purity ([4]; ethyl acetate, 40 °C, 3 days): 96.6% | Content of AST-3424 ([4]; ethyl acetate, 40 °C, 3 days): 96.1 mg/mL | Stability in solvent ([4]; propylene glycol): stable; also recorded: good solubility and stability | Chemical purity [4, 9]: 96.8% | Content of AST-3424 [4, 9]: 83.5 mg/mL | Stability in solvent ([4]; water): poor solubility and stability | Chemical purity ([4]; water, 40 °C, 3 days): 75.4% | Content of AST-3424 ([4]; water, 40 °C, 3 days): 89.2 mg/mL | Viscosity [6]: obviously higher viscosity; also recorded: high viscosity | Phenomenon (solubility in words) ([7]; ethanol, table cell continues '(mutually soluble)'): good solubilities; also recorded: good solubility and stability; also recorded: Very soluble | Phenomenon (solubility in words) ([7]; ethyl acetate, table cell continues '(mutually soluble)'): Very soluble | solubility ([7]; organic solvent or mixture, ethanol): > 1000 mg/mL | solubility ([7]; organic solvent or mixture, ethyl acetate): > 1000 mg/mL | solubility ([7]; organic solvent or mixture, propylene glycol): > 100 mg/mL | Phenomenon (solubility in words) ([7]; propylene glycol, table cell continues 'soluble'): good solubilities; also recorded: good solubility and stability; also recorded: Freely | solubility ([7]; water): ~20 mg/mL (≈ 43.4 mM) | Phenomenon (solubility in words) ([7]; water, table cell continues 'soluble'): sparingly soluble; also recorded: poor solubility and stability
